Reference: patent US20240425500A1 (priority 2021, published 2024)

What was measured:
[1] = tested on: Phytophthora infestans; assay: whole plant or invertebrate; assay type: in vivo; settings: in Solanum lycopersicum, foliar, read-out: control of Phytophthora infestans compared to untreated control
[2] = tested on: Plasmopara viticola; assay: whole plant or invertebrate; assay type: in vivo; settings: foliar, read-out: control of Plasmopara viticola compared to untreated control
[3] = tested on: Pythium ultimum; assay: Pythium ultimum / liquid culture (seedling damping off); assay type: cell-based; settings: Globisporangium ultimum, liquid culture in PDB, 24 °C, 2-3 days after application, read-out: control of Pythium ultimum (inhibition of growth, photometric) compared to untreated control
Method in brief: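 Mycelia fragments and oospores from fresh liquid culture mixed into potato dextrose broth and added to compound in DMSO. Incubated at 24° C.; growth inhibition read photometrically 2–3 days after application.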

COC(=O)Nc1ccc(-c2cnc3ccc(C(=O)N(C)c4ccc(Cl)c(OC)c4)cn23)cn1 [Compound 75, methyl N-[5-[6-[(4-chloro-3-methoxy-phenyl)-methyl-carbamoyl]imidazo[1,2-a]pyridin-3-yl]-2-pyridyl]carbamate]
≥ 80%: pest or weed control at 200 ppm [1] | pest or weed control at 200 ppm [2] | inhibition at 20 ppm [3]

COCCN(C(=O)c1ccc2ncc(-c3ccc(NC(=O)OC)nc3)n2c1)c1ccc(F)cc1 [Compound 76, methyl N-[5-[6-[(4-fluorophenyl)-(2-methoxyethyl)carbamoyl]imidazo[1,2-a]pyridin-3-yl]-2-pyridyl]carbamate]
≥ 80%: pest or weed control at 200 ppm [1] | pest or weed control at 200 ppm [2] | inhibition at 20 ppm [3]

COC(=O)Nc1ccc(-c2cnc3c(C)cc(C(=O)N(C)c4ccc(F)cc4)cn23)cn1 [Compound 82, methyl N-[5-[6-[(4-fluorophenyl)-methyl-carbamoyl]-8-methyl-imidazo[1,2-a]pyridin-3-yl]-2-pyridyl]carbamate]
≥ 80%: pest or weed control at 200 ppm [1] | pest or weed control at 200 ppm [2] | inhibition at 20 ppm [3]

COC(=O)Nc1ccc(-c2cnc3c(OC)cc(C(=O)N(C)c4ccc(F)cc4)cn23)cn1 [Compound 84, methyl N-[5-[6-[(4-fluorophenyl)-methyl-carbamoyl]-8-methoxy-imidazo[1,2-a]pyridin-3-yl]-2-pyridyl]carbamate]
≥ 80%: pest or weed control at 200 ppm [1] | pest or weed control at 200 ppm [2] | inhibition at 20 ppm [3]

COC(=O)Nc1ccc(-c2cnc3c(Cl)cc(C(=O)N(C)c4ccc(F)cc4)cn23)cn1 [Compound 85, methyl N-[5-[8-chloro-6-[(4-fluorophenyl)-methyl-carbamoyl]imidazo[1,2-a]pyridin-3-yl]-2-pyridyl]carbamate]
≥ 80%: pest or weed control at 200 ppm [1] | pest or weed control at 200 ppm [2] | inhibition at 20 ppm [3]

COC(=O)Nc1ccc(-c2cnc3cc(C)c(C(=O)N(C)c4ccc(F)cc4)cn23)cn1 [Compound 86, methyl N-[5-[6-[(4-fluorophenyl)-methyl-carbamoyl]-7-methyl-imidazo[1,2-a]pyridin-3-yl]-2-pyridyl]carbamate]
≥ 80%: pest or weed control at 200 ppm [1] | pest or weed control at 200 ppm [2] | inhibition at 20 ppm [3]

COC(=O)Nc1ccc(-c2cnc3ccc(C(=O)N(CC#N)c4ccc(F)c(OC)c4)cn23)cn1 [Compound 89, methyl N-[5-[6-[cyanomethyl-(4-fluoro-3-methoxy-phenyl)carbamoyl]imidazo [1,2-a]pyridin-3-yl]-2-pyridyl]carbamate]
≥ 80%: pest or weed control at 200 ppm [1] | pest or weed control at 200 ppm [2] | inhibition at 20 ppm [3]

COC(=O)Nc1ccc(-c2cnc3ccc(C(=O)N(CC#N)c4ccc(Cl)c(OC)c4)cn23)cn1 [Compound 90, methyl N-[5-[6-[(4-chloro-3-methoxy-phenyl)-(cyanomethyl)carbamoyl]imidazo[1,2-a]pyridin-3-yl]-2-pyridyl]carbamate]
≥ 80%: pest or weed control at 200 ppm [1] | pest or weed control at 200 ppm [2] | inhibition at 20 ppm [3]

COCN(C(=O)c1ccc2ncc(-c3ccc(NC(=O)OC)nc3)n2c1)c1ccc(F)c(OC)c1 [Compound 93, methyl N-[5-[6-[(4-fluoro-3-methoxy-phenyl)-(methoxymethyl)carbamoyl]imidazo[1,2-a]pyridin-3-yl]-2-pyridyl]carbamate]
≥ 80%: pest or weed control at 200 ppm [1] | pest or weed control at 200 ppm [2] | inhibition at 20 ppm [3]

COCN(C(=O)c1cc(C)c2ncc(-c3ccc(NC(=O)OC)nc3)n2c1)c1ccc(F)c(OC)c1 [Compound 94, methyl N-[5-[6-[(4-fluoro-3-methoxy-phenyl)-(methoxymethyl)carbamoyl]-8-methyl-imidazo[1,2-a]pyridin-3-yl]-2-pyridyl]carbamate]
≥ 80%: pest or weed control at 200 ppm [1] | pest or weed control at 200 ppm [2] | inhibition at 20 ppm [3]

COC(=O)Nc1ccc(-c2cnc3c(C)cc(C(=O)N(C)c4ccc(F)c(OC)c4)cn23)cn1 [Compound 95, methyl N-[5-[6-[(4-fluoro-3-methoxy-phenyl)-methyl-carbamoyl]-8-methyl-imidazo[1,2-a]pyridin-3-yl]-2-pyridyl]carbamate]
≥ 80%: pest or weed control at 200 ppm [1] | pest or weed control at 200 ppm [2] | inhibition at 20 ppm [3]

COC(=O)Nc1ccc(-c2cnc3ccc(C(=O)N(C)c4ccc(F)c(O)c4)cn23)cn1 [Compound 96, methyl N-[5-[6-[(4-fluoro-3-hydroxy-phenyl)-methyl-carbamoyl]imidazo[1,2-a]pyridin-3-yl]-2-pyridyl]carbamate]
≥ 80%: pest or weed control at 200 ppm [1] | pest or weed control at 200 ppm [2] | inhibition at 20 ppm [3]

COC(=O)Nc1ccc(-c2cnc3c(Br)cc(C(=O)N(C)c4ccc(F)cc4)cn23)cn1 [Compound 98, methyl N-[5-[8-bromo-6-[(4-fluorophenyl)-methyl-carbamoyl]imidazo[1,2-a]pyridin-3-yl]-2-pyridyl]carbamate]
≥ 80%: pest or weed control at 200 ppm [1] | pest or weed control at 200 ppm [2] | inhibition at 20 ppm [3]

COC(=O)Nc1ccc(-c2cnc3c(NC(C)=O)cc(C(=O)N(C)c4ccc(F)cc4)cn23)cn1 [Compound 100, methyl N-[5-[8-acetamido-6-[(4-fluorophenyl)-methyl-carbamoyl]imidazo[1,2-a]pyridin-3-yl]-2-pyridyl]carbamate]
≥ 80%: pest or weed control at 200 ppm [1] | pest or weed control at 200 ppm [2] | inhibition at 20 ppm [3]

CCN(C(=O)c1ccc2ncc(-c3ccc(NC(=O)OC)nc3)n2c1)c1ccc(F)c(F)c1 [Compound 105, methyl N-[5-[6-[(3,4-difluorophenyl)-ethyl-carbamoyl]imidazo[1,2-a]pyridin-3-yl]-2-pyridyl]carbamate]
≥ 80%: pest or weed control at 200 ppm [1] | pest or weed control at 200 ppm [2] | inhibition at 20 ppm [3]

COC(=O)Nc1ccc(-c2cnc3ccc(C(=O)N(C)c4ccc(C#N)c(Cl)c4)cn23)cn1 [Compound 107, methyl N-[5-[6-[(3-chloro-4-cyano-phenyl)-methyl-carbamoyl]imidazo[1,2-a]pyridin-3-yl]-2-pyridyl]carbamate]
≥ 80%: pest or weed control at 200 ppm [1] | pest or weed control at 200 ppm [2] | inhibition at 20 ppm [3]

COC(=O)Nc1ccc(-c2cnc3ccc(C(=O)N(c4ccc(F)cc4)C4CC4)cn23)cn1 [Compound 110, methyl N-[5-[6-[cyclopropyl-(4-fluorophenyl)carbamoyl]imidazo [1,2-a]pyridin-3-yl]-2-pyridyl]carbamate]
≥ 80%: pest or weed control at 200 ppm [1] | pest or weed control at 200 ppm [2] | inhibition at 20 ppm [3]

COC(=O)Nc1ccc(-c2cnc3ccc(C(=O)N(C)c4ccc(F)c(Cl)c4)cn23)cn1 [Compound 113, methyl N-[5-[6-[(3-chloro-4-fluoro-phenyl)-methyl-carbamoyl]imidazo[1,2-a]pyridin-3-yl]-2-pyridyl]carbamate]
≥ 80%: pest or weed control at 200 ppm [1] | pest or weed control at 200 ppm [2] | inhibition at 20 ppm [3]

CCN(C(=O)c1ccc2ncc(-c3ccc(NC(=O)OC)nc3)n2c1)c1ccc(F)c(C)c1 [Compound 116, methyl N-[5-[6-[ethyl-(4-fluoro-3-methyl-phenyl)carbamoyl]imidazo [1,2-a]pyridin-3-yl]-2-pyridyl]carbamate]
≥ 80%: pest or weed control at 200 ppm [1] | pest or weed control at 200 ppm [2] | inhibition at 20 ppm [3]

CCN(C(=O)c1ccc2ncc(-c3ccc(NC(=O)OC)nc3)n2c1)c1cccc(OC)c1 [Compound 124, methyl N-[5-[6-[ethyl-(3-methoxyphenyl)carbamoyl]imidazo[1,2-a]pyridin-3-yl]-2-pyridyl]carbamate]
≥ 80%: pest or weed control at 200 ppm [1] | pest or weed control at 200 ppm [2] | inhibition at 20 ppm [3]

CCN(C(=O)c1ccc2ncc(-c3ccc(NC(=O)OC)nc3)n2c1)c1ccc(F)cc1 [Compound 136, methyl N-[5-[6-[ethyl-(4-fluorophenyl)carbamoyl]imidazo[1,2-a]pyridin-3-yl]-2-pyridyl]carbamate]
≥ 80%: pest or weed control at 200 ppm [1] | pest or weed control at 200 ppm [2] | inhibition at 20 ppm [3]

COC(=O)Nc1ccc(-c2cnc3ccc(C(=O)N(CCC#N)c4cccc(OC)c4)cn23)cn1 [Compound 149, methyl N-[5-[6-[2-cyanoethyl-(3-methoxyphenyl)carbamoyl]imidazo[1,2-a]pyridin-3-yl]-2-pyridyl]carbamate]
≥ 80%: pest or weed control at 200 ppm [1] | pest or weed control at 200 ppm [2] | inhibition at 20 ppm [3]

COC(=O)Nc1ccc(-c2cnc3ccc(C(=O)N(C)c4ccc(F)c(OC)c4)cn23)cc1 [Compound 158, methyl N-[4-[6-[(4-fluoro-3-methoxy-phenyl)-methyl-carbamoyl]imidazo[1,2-a]pyridin-3-yl]phenyl]carbamate]
≥ 80%: pest or weed control at 200 ppm [1] | pest or weed control at 200 ppm [2] | inhibition at 20 ppm [3]

COC(=O)Nc1ccc(-c2cnc3ccc(C(=S)N(C)c4ccc(F)cc4)cn23)cn1 [Compound 164, methyl N-[5-[6-[(4-fluorophenyl)-methyl-carbamothioyl]imidazo[1,2-a]pyridin-3-yl]-2-pyridyl]carbamate]
≥ 80%: pest or weed control at 200 ppm [1] | pest or weed control at 200 ppm [2] | inhibition at 20 ppm [3]

COC(=O)Nc1ccc(-c2cnc3c(NC(C)=O)cc(C(=O)N(C)c4ccc(F)c(OC)c4)cn23)cn1 [Compound 169, methyl N-[5-[8-acetamido-6-[(4-fluoro-3-methoxy-phenyl)-methyl-carbamoyl]imidazo[1,2-a]pyridin-3-yl]-2-pyridyl]carbamate]
≥ 80%: pest or weed control at 200 ppm [1] | pest or weed control at 200 ppm [2] | inhibition at 20 ppm [3]

CCc1cc(C(=O)N(C)c2ccc(F)cc2)cn2c(-c3ccc(NC(=O)OC)nc3)cnc12 [Compound 170, methyl N-[5-[8-ethyl-6-[(4-fluorophenyl)-methyl-carbamoyl]imidazo[1,2-a]pyridin-3-yl]-2-pyridyl]carbamate]
≥ 80%: pest or weed control at 200 ppm [1] | pest or weed control at 200 ppm [2] | inhibition at 20 ppm [3]
